Patent US8076341B2, “Compounds and use thereof” (Vironova AB, priority 2007, dated 2011)

Key:
[1] = test system: human cytomegalovirus (HCMV) strain AD169 and TB 40; format: cell-based; details: human lung fibroblasts, IE staining
[2] = test system: HCMV; test: Test of inhibition of HCMV assembly and egress (modified plaque assay, 3 and 5 dpi); format: cell-based, human cytomegalovirus; details: left until 7 dpi, infected human lung fibroblast cells, IE staining; for Inhibition 3 dpi (%): agent added 3 dpi; for Inhibition 5 dpi (%): agent added 5 dpi
[3] = test system: infected and uninfected human lung fibroblasts; test: Toxicity by propidium iodide staining of cell cultures; format: cell-based; details: method and source not stated
Experimental: The concentrations of compounds used in the viral experiments were at the μM level. Cellular toxicity for B-220 has been shown for concentrations above 100 μM.

SMILES | Inhibitory effect (%) as % inhibition of infection [1] | Inhibition 3 dpi (%) [2] | Inhibition 5 dpi (%) [2] | concentrations at which cellular toxicity has been shown [3]
Nc1nc(O)c2ncn(COC(CO)CO)c2n1 [Ganciclovir] | 20-30% | 100% | 80-95% | 
O=C(O)P(=O)(O)O [Foscavir] | 20-50% | 85-100% | 65-85% | 
Cc1oncc1C(=O)Nc1ccc(C(F)(F)F)cc1 [Leflunomide] | 25-50% | 65-80% | 80-90% | 
Cc1cc2nc3c4ccccc4n(CCN(C)C)c3nc2cc1C [B-220, 2,3-dimethyl-6-(N,N-dimethylaminoethyl)-6H-indolo(2,3-b)quinoxaline] | 20% | 65-85% | 65-80% | above 100 μM
